# From patent US11000033B2, “Ketone or oxime compound, and herbicide” (NISSAN CHEMICAL CORPORATION, priority 2014, dated 2021)
# What was measured:
# Type in all cases: in vivo
# Leptochloa chinensis = assay: Test Example 3: herbicidal effect by foliage application, Wagner pot (symbol D); details: application herbicide amount 320 g/ha
# Method in brief: (§1)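 Alluvial soil was flooded to a depth of 0.1–0.5 cm, seeded with the weeds and rice, and kept in a greenhouse at 25–30 °C. After 14 days of growth, the foliage received a small-sprayer application of emulsion diluted to the intended rate; injury was rated at 3 weeks.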
# [1] = system: Echinochloa oryzacola Vasing.; assay: Test Example 1: herbicidal activity, application before weed generation in submerged conditions (symbol A); details: application herbicide amount 320 g/ha
# Method in brief: (§2)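 Greenhouse growth at 25–30 °C lasted 3 weeks after treatment, when each weed was graded 0–5 by herbicidal ratio. Treatment was a diluted emulsion applied to the water surface of 4 cm-submerged alluvial soil on the sowing day.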
# Monochoria vaginalis = assay: Test Example 2: herbicidal activity, application during weed generation in submerged conditions (symbol C); details: Table 23; application herbicide amount 320 g/ha; grade 0-5 by criteria of Test Example 1
# Method in brief: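 Weeds emerging under flooded conditions were treated with compound formulated as an emulsion and diluted with water to the intended herbicide amount, poured onto the surface of 4 cm standing water. Seeds had been co-sown in alluvial soil; plants grew at 25° C. to 30° C. and were assessed after 3 weeks.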
# Veronica persica = assay: Test Example 4: herbicidal effect by soil treatment (symbol R); details: application herbicide amount 320 g/ha
# Method in brief: (§3)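 Seeds were sown in sterilized diluvial soil, covered with about 1.5 cm of soil, and the soil surface was sprayed with a water-diluted emulsion of the compound at a predetermined rate. Plants grew in a greenhouse at 25° C. to 30° C.; effects were scored visually 3 weeks after application.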
# Cyperus difformis = assay: Test Example 3: herbicidal effect by foliage application, Wagner pot (symbol E); details: application herbicide amount 320 g/ha
# Method in brief: as §1
# Setaria viridis [2] = assay: Test Example 4: herbicidal effect by soil treatment (symbol G); details: application herbicide amount 320 g/ha
# Method in brief: as §3
# Digitaria ciliaris [3] = assay: Test Example 4: herbicidal effect by soil treatment (symbol F); details: application herbicide amount 320 g/ha
# Method in brief: as §3
# Setaria viridis [4] = assay: Test Example 5: herbicidal effect by foliage application, plastic box (symbol G); details: 320 g/ha, 3 weeks after application
# Method in brief: (§4)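 Greenhouse foliar test: seedlings at 14 days, grown 25° C. to 30° C. in sterilized diluvial soil; compound applied as an aqueous dilution of an emulsion; response read 3 weeks after spraying.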
# Scirpus juncoides = assay: Test Example 1: herbicidal activity, application before weed generation in submerged conditions (symbol B); details: application herbicide amount 320 g/ha
# Method in brief: as §2
# [5] = system: Echinochloa crus-galli var. crus-galli; assay: Test Example 4: herbicidal effect by soil treatment (symbol H); details: application herbicide amount 320 g/ha
# Method in brief: as §3
# beet = assay: Test Example 4: effect on crop by soil treatment (symbol f); details: application herbicide amount 320 g/ha
# Method in brief: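 Diluvial soil (sterilized) in boxes; seeds placed spot-wise alongside weed species; ~1.5 cm covering soil. Greenhouse, 25–30° C.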
# Avena fatua = assay: Test Example 5: herbicidal effect by foliage application, plastic box (symbol I); details: 320 g/ha, 3 weeks after application
# Method in brief: as §4
# Digitaria ciliaris [6] = assay: Test Example 5: herbicidal effect by foliage application, plastic box (symbol F); details: 320 g/ha, 3 weeks after application
# Method in brief: as §4
# Stellaria media = assay: Test Example 5: herbicidal effect by foliage application, plastic box (symbol P); details: 320 g/ha, 3 weeks after application
# Method in brief: as §4
SMILES,"herbicidal effect on D (Leptochloa chinensis), grade 0-5 (Leptochloa chinensis)","Herbicidal effect grade, A: Echinochloa oryzacola Vasing. [1]","Herbicidal effect grade, C: Monochoria vaginalis (Monochoria vaginalis)","R: Veronica persica, herbicidal effect grade (Veronica persica)","herbicidal effect on E, grade 0-5 (Cyperus difformis)","G: Setaria viridis, herbicidal effect grade (Setaria viridis [2])","F: Digitaria ciliaris, herbicidal effect grade (Digitaria ciliaris [3])","G: Setaria viridis, herbicidal effect grade (Setaria viridis [4])","Herbicidal effect grade, B: Scirpus juncoides (Scirpus juncoides)","H: Echinochloa crus-galli var. crus-galli, herbicidal effect grade [5]","f: beet, effect on crop grade (beet)","I: Avena fatua, herbicidal effect grade (Avena fatua)","F: Digitaria ciliaris, herbicidal effect grade (Digitaria ciliaris [6])","P: Stellaria media, herbicidal effect grade (Stellaria media)","G: Setaria viridis, herbicidal effect (criteria of Test Example 1) (Setaria viridis [4])","I: Avena fatua, herbicidal effect (criteria of Test Example 1) (Avena fatua)","F: Digitaria ciliaris, herbicidal effect (criteria of Test Example 1) (Digitaria ciliaris [6])","P: Stellaria media, herbicidal effect (criteria of Test Example 1) (Stellaria media)"
CON=C(C)CC1CC(O)=C(c2c(C)cc(C3CC3)cc2C)C1=O (stereo not shown) [6-050],5 (Herbicidal ratio of 90% or more (almost completely withered)),3 (Herbicidal ratio of 40% or higher and lower than 70%),0 (Herbicidal ratio of 5% or lower (almost no effect)),0 (Herbicidal ratio of 5% or lower (almost no effect)),5 (Herbicidal ratio of 90% or more (almost completely withered)),4 (Herbicidal ratio of 70% or higher and lower than 90%),5 (Herbicidal ratio of 90% or more (almost completely withered)),2 (Herbicidal ratio of 20% or higher and lower than 40%),1 (Herbicidal ratio of 5% or higher and lower than 20%),4 (Herbicidal ratio of 70% or higher and lower than 90%),0 (Herbicidal ratio of 5% or lower (almost no effect)),2 (Herbicidal ratio of 20% or higher and lower than 40%),4 (Herbicidal ratio of 70% or higher and lower than 90%),3 (Herbicidal ratio of 40% or higher and lower than 70%),,,,
CON=C(C)CC1CC(O)=C(c2c(C)cc(Oc3ccccc3)cc2C)C1=O (stereo not shown) [6-052],5 (Herbicidal ratio of 90% or more (almost completely withered)),4 (Herbicidal ratio of 70% or higher and lower than 90%),0 (Herbicidal ratio of 5% or lower (almost no effect)),0 (Herbicidal ratio of 5% or lower (almost no effect)),3 (Herbicidal ratio of 40% or higher and lower than 70%),3 (Herbicidal ratio of 40% or higher and lower than 70%),4 (Herbicidal ratio of 70% or higher and lower than 90%),5 (Herbicidal ratio of 90% or more (almost completely withered)),1 (Herbicidal ratio of 5% or higher and lower than 20%),4 (Herbicidal ratio of 70% or higher and lower than 90%),0 (Herbicidal ratio of 5% or lower (almost no effect)),2 (Herbicidal ratio of 20% or higher and lower than 40%),5 (Herbicidal ratio of 90% or more (almost completely withered)),0 (Herbicidal ratio of 5% or lower (almost no effect)),,,,
CON=C(C)CC1CC(O)=C(c2c(C)cc(OC)cc2C)C1=O (stereo not shown) [6-055],5 (Herbicidal ratio of 90% or more (almost completely withered)),4 (Herbicidal ratio of 70% or higher and lower than 90%),0 (Herbicidal ratio of 5% or lower (almost no effect)),0 (Herbicidal ratio of 5% or lower (almost no effect)),5 (Herbicidal ratio of 90% or more (almost completely withered)),5 (Herbicidal ratio of 90% or more (almost completely withered)),5 (Herbicidal ratio of 90% or more (almost completely withered)),,1 (Herbicidal ratio of 5% or higher and lower than 20%),5 (Herbicidal ratio of 90% or more (almost completely withered)),0 (Herbicidal ratio of 5% or lower (almost no effect)),,,,5 (Herbicidal ratio of 90% or more (almost completely withered)),5 (Herbicidal ratio of 90% or more (almost completely withered)),5 (Herbicidal ratio of 90% or more (almost completely withered)),4 (Herbicidal ratio of 70% or higher and lower than 90%)
CON=C(C)CC1CC(O)=C(c2c(C)cc(C(C)=NOC)cc2C)C1=O (stereo not shown) [6-065],5 (Herbicidal ratio of 90% or more (almost completely withered)),4 (Herbicidal ratio of 70% or higher and lower than 90%),2 (Herbicidal ratio of 20% or higher and lower than 40%),3 (Herbicidal ratio of 40% or higher and lower than 70%),5 (Herbicidal ratio of 90% or more (almost completely withered)),5 (Herbicidal ratio of 90% or more (almost completely withered)),5 (Herbicidal ratio of 90% or more (almost completely withered)),,2 (Herbicidal ratio of 20% or higher and lower than 40%),5 (Herbicidal ratio of 90% or more (almost completely withered)),2 (Herbicidal ratio of 20% or higher and lower than 40%),,,,5 (Herbicidal ratio of 90% or more (almost completely withered)),5 (Herbicidal ratio of 90% or more (almost completely withered)),5 (Herbicidal ratio of 90% or more (almost completely withered)),3 (Herbicidal ratio of 40% or higher and lower than 70%)
CCc1cc(-c2ccc(Cl)cc2)cc(C)c1C1=C(O)CC(CC(C)=NOC)C1=O (stereo not shown) [6-066],5 (Herbicidal ratio of 90% or more (almost completely withered)),5 (Herbicidal ratio of 90% or more (almost completely withered)),0 (Herbicidal ratio of 5% or lower (almost no effect)),3 (Herbicidal ratio of 40% or higher and lower than 70%),5 (Herbicidal ratio of 90% or more (almost completely withered)),5 (Herbicidal ratio of 90% or more (almost completely withered)),5 (Herbicidal ratio of 90% or more (almost completely withered)),,3 (Herbicidal ratio of 40% or higher and lower than 70%),5 (Herbicidal ratio of 90% or more (almost completely withered)),0 (Herbicidal ratio of 5% or lower (almost no effect)),,,,5 (Herbicidal ratio of 90% or more (almost completely withered)),5 (Herbicidal ratio of 90% or more (almost completely withered)),5 (Herbicidal ratio of 90% or more (almost completely withered)),3 (Herbicidal ratio of 40% or higher and lower than 70%)
